Experimental data: patent US20240033234A1, “THERAPEUTIC COMPOUNDS, FORMULATIONS, AND USE THEREOF” (Tvardi Therapeutics, Inc., priority 2022, published 2024)
Values joined by “and” are separate entries in the source; they are usually repeats but may differ in a detail not shown here. Equal values may be shown once.

Assay: Accelerated and long term stability study of TTI-101 (Batch A, Batch B): HPLC assay, purity, impurities and water content after storage at 5° C., 25° C./60% RH, 30° C./65% RH or 40° C./75% RH
Assay type: physicochemical
Parameters: key to Impurity RRT 1.05: NQ: ≥0.02% and <0.05%; —: no peak
Protocol: Exemplary HPLC conditions: diluent was 0.1% trifluoroacetic acid (TFA) in acetonitrile, Mobile Phase A was 0.05% TFA in water, and Mobile Phase B was 0.05% TFA in acetonitrile, column (Agilent, Eclipse XDB-C18, 3.0×100 mm, particle size 1.8 μm), flow (0.425 mL/min), and detector (280 nm diode array).
Batch A was prepared analogously using Method 3 as described in Example 1. Batch B was prepared according to Method 5 as described in Example 1.
Samples of TTI-101 were stored at 5° C., 25° C./60% RH, 30° C./65% RH, or 40° C./75% RH. TTI-101 was stored in an LDPE bag enclosed with a Nylon cable tie and then transferred to another LDPE bag and enclosed with a Nylon cable tie. The enclosure was put into an HDPE bottle and closed with a polyethylene-lined polypropylene cap. The samples were stored under the above-identified conditions.
The samples were analyzed using HPLC with the exemplary conditions identified above. Relative retention time (RRT) for Compound 5 was about 0.83, Compound 4 was about 1.05-1.06, Compound 6 was about 1.15-1.17, and compound of formula (IV) was about 0.99.
• NA not applicable • NQ ≥0.02% and <0.05% • Avg average • Cmpd compound • — no peak • M month • RRT relative retention time

[1] = Storage 5° C., 4.5 M (25° C./60% RH) + 1.5 M (5° C.), Avg
[2] = Storage 5° C., 4.5 M (25° C./60% RH) + 1.5 M (5° C.), Prep P1-P2
[3] = Storage 5° C., 4.5 M (25° C./60% RH) + 1.5 M (5° C.), Prep P1-P2, listed as Batch B
[4] = Storage 5° C., 9 M, Prep P1-P2, listed as Batch B
[5] = Storage 25° C./60% RH, 0 M, Avg
[6] = Storage 25° C./60% RH, 0 M, Prep P1-P5
[7] = Storage 25° C./60% RH, 0 M, Prep P1-P5, listed as Batch B
[8] = Storage 25° C./60% RH, 1 M, Avg
[9] = Storage 25° C./60% RH, 1 M, Prep P1-P2
[10] = Storage 25° C./60% RH, 3 M, Avg
[11] = Storage 25° C./60% RH, 3 M, Prep P1-P2
[12] = Storage 25° C./60% RH, 3 M, Prep P1-P2, listed as Batch B
[13] = Storage 25° C./60% RH, 6 M, Avg
[14] = Storage 25° C./60% RH, 6 M, Prep P1-P2

Water Content (Storage 5° C., 0 M, Avg): 0.1% | Water Content (Storage 5° C., 0 M, Prep P1-P2): 0.1% | Impurities Total (Storage 5° C., 0 M, Prep P1-P5): 0.1 area % | Impurity RRT 0.86 (Storage 5° C., 0 M, Prep P1-P5): NQ (≥0.02% and <0.05%) | Impurity RRT 0.99 (Storage 5° C., 0 M, Prep P1-P5): NQ (≥0.02% and <0.05%) | Purity (Storage 5° C., 0 M, Prep P1-P5): 99.8% | Impurity RRT 1.16 (Cmp 6) (Storage 5° C., 0 M, Prep P1-P5, listed as Batch B): 0.08 area % and 0.07 area % | Impurities Total [1]: 0.3 area % | Impurity RRT 0.80 [1]: NQ (≥0.02% and <0.05%) | Impurity RRT 0.84 [1]: NQ (≥0.02% and <0.05%) | Impurity RRT 0.87 [1]: NQ (≥0.02% and <0.05%) | Impurity RRT 0.99 [1]: 0.05 area % | Impurity RRT 1.02 [1]: NQ (≥0.02% and <0.05%) | Impurity RRT 1.05 [1]: NQ (≥0.02% and <0.05%) | Impurity RRT 1.06 (Cmpd 4) [1]: NQ (≥0.02% and <0.05%) | Impurity RRT 1.17 (Cmp 6) [1]: 0.26 area % | Impurity RRT 1.39 [1]: NQ (≥0.02% and <0.05%) | Purity [1]: 99.6% | Water Content [1]: <0.04% | Impurity RRT 0.84 [2]: NQ (≥0.02% and <0.05%) | Impurity RRT 0.87 [2]: NQ (≥0.02% and <0.05%) | Impurity RRT 1.02 [2]: NQ (≥0.02% and <0.05%) | Impurity RRT 1.06 (Cmpd 4) [2]: NQ (≥0.02% and <0.05%) | Impurity RRT 1.39 [2]: NQ (≥0.02% and <0.05%) | Water Content [2]: <0.04% | Impurities Total [3]: 0.2 area % and 0.3 area % | Impurity RRT 1.17 (Cmp 6) [3]: 0.25 area % and 0.27 area % | Purity [3]: 99.6% and 99.5% | Assay (Storage 5° C., 9 M, Avg): 99.1% | Impurities Total (Storage 5° C., 9 M, Avg): 0.3 area % | Impurity RRT 0.84 (Storage 5° C., 9 M, Avg): NQ (≥0.02% and <0.05%) | Impurity RRT 0.87 (Storage 5° C., 9 M, Avg): NQ (≥0.02% and <0.05%) | Impurity RRT 0.99 (Storage 5° C., 9 M, Avg): 0.11 area % | Impurity RRT 1.02 (Storage 5° C., 9 M, Avg): NQ (≥0.02% and <0.05%) | Impurity RRT 1.16 (Cmp 6) (Storage 5° C., 9 M, Avg): 0.18 area % | Impurity RRT 1.39 (Storage 5° C., 9 M, Avg): NQ (≥0.02% and <0.05%) | Impurity RRT 1.47 (Storage 5° C., 9 M, Avg): NQ (≥0.02% and <0.05%) | Purity (Storage 5° C., 9 M, Avg): 99.6% | Water Content (Storage 5° C., 9 M, Avg): 0.05% | Impurities Total (Storage 5° C., 9 M, Prep P1-P2): 0.3 area % | Impurity RRT 0.87 (Storage 5° C., 9 M, Prep P1-P2): NQ (≥0.02% and <0.05%) | Impurity RRT 0.99 (Storage 5° C., 9 M, Prep P1-P2): 0.11 area % | Impurity RRT 1.02 (Storage 5° C., 9 M, Prep P1-P2): NQ (≥0.02% and <0.05%) | Impurity RRT 1.39 (Storage 5° C., 9 M, Prep P1-P2): NQ (≥0.02% and <0.05%) | Purity (Storage 5° C., 9 M, Prep P1-P2): 99.6% | Assay [4]: 98.7% and 99.4% | Impurity RRT 1.16 (Cmp 6) [4]: 0.18 area % and 0.17 area % | Water Content [4]: 0.1% and 0.05% | Assay [5]: 99.4% | Impurities Total [5]: 0.1 area % | Impurity RRT 0.61 [5]: 0.05 area % | Impurity RRT 0.86 [5]: NQ (≥0.02% and <0.05%) | Impurity RRT 0.88 [5]: NQ (≥0.02% and <0.05%) | Impurity RRT 0.99 [5]: NQ (≥0.02% and <0.05%) | Impurity RRT 1.16 (Cmp 6) [5]: 0.07 area % | Purity [5]: 99.8% | Water Content [5]: 0.1% | Water Content (Storage 25° C./60% RH, 0 M, Prep P1-P2): 0.1% | Impurities Total [6]: 0.1 area % | Impurity RRT 0.86 [6]: NQ (≥0.02% and <0.05%) | Impurity RRT 0.99 [6]: NQ (≥0.02% and <0.05%) | Purity [6]: 99.8% | Impurity RRT 1.16 (Cmp 6) [7]: 0.08 area % and 0.07 area % | Impurities Total [8]: 0.5 area % | Impurity RRT 0.80 [8]: NQ (≥0.02% and <0.05%) | Impurity RRT 0.84 [8]: NQ (≥0.02% and <0.05%) | Impurity RRT 0.87 [8]: NQ (≥0.02% and <0.05%) | Impurity RRT 0.99 [8]: 0.10 area % | Impurity RRT 1.02 [8]: NQ (≥0.02% and <0.05%) | Impurity RRT 1.05 [8]: NQ (≥0.02% and <0.05%) | Impurity RRT 1.06 (Cmpd 4) [8]: NQ (≥0.02% and <0.05%) | Impurity RRT 1.17 (Cmp 6) [8]: 0.39 area % | Purity [8]: 99.4% | Water Content [8]: 0.1% | Impurities Total [9]: 0.5 area % | Impurity RRT 0.80 [9]: NQ (≥0.02% and <0.05%) | Impurity RRT 0.84 [9]: NQ (≥0.02% and <0.05%) | Impurity RRT 0.87 [9]: NQ (≥0.02% and <0.05%) | Impurity RRT 0.99 [9]: 0.10 area % | Impurity RRT 1.02 [9]: NQ (≥0.02% and <0.05%) | Impurity RRT 1.17 (Cmp 6) [9]: 0.39 area % | Purity [9]: 99.4% | Water Content [9]: 0.1% | Assay (Storage 25° C./60% RH, 1 M, Prep P1-P2, listed as Batch B): 99.0% and 99.2% | Assay [10]: 97.8% | Impurities Total [10]: 0.4 area % | Impurity RRT 0.48 [10]: NQ (≥0.02% and <0.05%) | Impurity RRT 0.80 [10]: NQ (≥0.02% and <0.05%) | Impurity RRT 0.84 [10]: NQ (≥0.02% and <0.05%) | Impurity RRT 0.87 [10]: NQ (≥0.02% and <0.05%) | Impurity RRT 0.99 [10]: 0.09 area % | Impurity RRT 1.02 [10]: NQ (≥0.02% and <0.05%) | Impurity RRT 1.05 [10]: — | Impurity RRT 1.06 (Cmpd 4) [10]: NQ (≥0.02% and <0.05%) | Impurity RRT 1.17 (Cmp 6) [10]: 0.33 area % | Purity [10]: 99.4% | Water Content [10]: 0.04% | Impurities Total [11]: 0.4 area % | Impurity RRT 0.80 [11]: NQ (≥0.02% and <0.05%) | Impurity RRT 0.84 [11]: NQ (≥0.02% and <0.05%) | Impurity RRT 0.87 [11]: NQ (≥0.02% and <0.05%) | Impurity RRT 0.99 [11]: 0.09 area % | Impurity RRT 1.02 [11]: NQ (≥0.02% and <0.05%) | Impurity RRT 1.05 [11]: — | Impurity RRT 1.17 (Cmp 6) [11]: 0.33 area % | Water Content [11]: 0.04% | Assay [12]: 96.8% and 98.8% | Purity [12]: 99.4% and 99.5% | Assay [13]: 98.7% | Impurities Total [13]: 0.3 area % | Impurity RRT 0.80 [13]: NQ (≥0.02% and <0.05%) | Impurity RRT 0.84 [13]: NQ (≥0.02% and <0.05%) | Impurity RRT 0.87 [13]: NQ (≥0.02% and <0.05%) | Impurity RRT 0.99 [13]: 0.05 area % | Impurity RRT 1.02 [13]: 0.05 area % | Impurity RRT 1.05 [13]: NQ (≥0.02% and <0.05%) | Impurity RRT 1.06 (Cmpd 4) [13]: NQ (≥0.02% and <0.05%) | Impurity RRT 1.17 (Cmp 6) [13]: 0.24 area % | Impurity RRT 1.39 [13]: NQ (≥0.02% and <0.05%) | Purity [13]: 99.5% | Water Content [13]: <0.04% | Impurities Total [14]: 0.3 area % | Impurity RRT 0.80 [14]: NQ (≥0.02% and <0.05%)
Structure (SMILES): COc1ccc(S(=O)(=O)Nc2cc(-c3c(O)ccc4ccccc34)c(O)c3ccccc23)cc1 [TTI-101]
Assay [7]: 99.0% and 100.5% and 99.3% and 99.5% and 98.8%
